“Also recorded” adds a separate entry of the source.

Consider two compounds from patent publication US20040166099A1, “Molecules preferentially associated with effector T cells and methods of their use” (TolerRx, Inc., priority 2002, published 2004).

Common to all, as to type: cell-based, human
The test system of test [1] is Th1 cells. In words: Proliferation (3H-thymidine incorporation) of differentiated Th1 cells stimulated with CD3 and CD28. The text has this: (§1) FIG. 4 depicts inhibition of proliferation of Th1 and Th2 cells, but not regulatory T cells, by Rottlerin, a commercially available inhibitor of PKC enzymes. Differentiated cells were stimulated with CD3 and CD28 in the presence of absence of the PKC inhibitor Rottlerin. Incorporation of ^3H-thymidine was used to monitor cell proliferation. Proliferation of each cell type is normalized to the proliferation observed in the absence of inhibitor.
(§2) Differentiated cell lines were produced from cells prepared from human cord blood or peripheral blood CD4+CD45RA+naïve T cells by a variety of methods, including flow cytometry and magnetic bead separations. Purity of the starting populations was >95%. Cells were then stimulated by CD3 and CD28 antibodies in RPMI 1640 with 10% FCS and 1% Human AB serum with defined mixtures of cytokines and neutralizing antibodies to cytokines to produce the differentiated cell types. Th1 cells were produced by culture with IL12 (62 U/ml) and anti-IL4 (0.2 ug/ml); Th2 cells were produced by culture in IL4(145 U/ml) and anti-IL12 (10 ug/ml) and anti-IFNγ (10 ug/ml); and regulatory T cells were produced by culture in TGFβ (32 U/ml), IL9 (42 U/ml), anti-IL4 (10 ug/ml) and anti-IL12 (10 ug/ml) and anti-IFNγ(10 ug/ml). (Note: anti-IL12 was not used in all experiments). All cultures were supplemented with IL2 (65 U/ml) and IL15 (4500 U/ml). Cells were split into larger culture dishes as warranted by cell division. At the conclusion of one round of cell differentiation (7-12 days), cells were harvested for preparation of total RNA for use in the gene chip experiments.
(§3) Differentiated cells, prepared as above, were re-stimulated using CD3 and CD28 in the presence of a range of concentrations of the commercial inhibitor Rottlerin.
(§4) Three days after initiation of the cultures, three replicate tissue culture wells for each condition for each cell type were fed with media containing ^3H-thymidine to monitor cell division. Wells were harvested 18 hr later and incorporated ^3H was measured by scintillation counting.

Test [2] relates to Th2 cells. Briefly: Proliferation (3H-thymidine incorporation) of differentiated Th2 cells stimulated with CD3 and CD28.
Text: as §1, §2, §3, §4

The test system of test [3] is regulatory T cells (TGFβ-derived Treg cells). Briefly: Proliferation (3H-thymidine incorporation) of differentiated regulatory T cells stimulated with CD3 and CD28.
Text: as §1
Differentiated cell lines were produced from cells prepared from human cord blood or peripheral blood CD4+CD45RA+naïve T cells by a variety of methods, including flow cytometry and magnetic bead separations. Purity of the starting populations was >95%. Cells were then stimulated by CD3 and CD28 antibodies in RPMI 1640 with 10% FCS and 1% Human AB serum with defined mixtures of cytokines and neutralizing antibodies to cytokines to produce the differentiated cell types. […]
as §4

Setting [4] is: FIG. 5 legend, representative data.
Setting [5] is: wells coated with CD3 and CD28, 3H-thymidine fed at day 3, harvested 18 hr later, increasing concentrations of inhibitor, FIG. 5.

Consider `CC(=O)c1c(O)c(C)c(O)c(Cc2c(O)c3c(c(C(=O)/C=C/c4ccccc4)c2O)OC(C)(C)C=C3)c1O` [Rottlerin], for which the “inhibition of cell division / proliferation of Th1 cells” value in test [1] (Th1 cells re-stimulated using CD3 and CD28, 5 uM, three of three experiments, FIG. 4) was “inhibition; also recorded: inhibited”. The “inhibition of cell division / proliferation of Th2 cells” value in test [2] (Th2 cells re-stimulated using CD3 and CD28, 5 uM, three of three experiments, FIG. 4) is recorded as “inhibition; also recorded: inhibited”. For the same compound, in test [3] (regulatory T cells re-stimulated using CD3 and CD28, range of concentrations, three of three experiments, FIG. 4), the “inhibition of proliferation of regulatory T cells” value is “not and did not inhibit”.
As for “NH2-RQIKIWFQNRRMKWKKMDQNMFRNFSFNMP-COOH (H-RQIKIWFQNRRMKWKKMDQNMFRNFSFNMP-OH) [antennapedia-PKCθ peptide]”, the “inhibition of proliferation of Th1 cells (in words)” value in test [1] (setting [4]) is “selectively inhibits”. Besides, the “proliferation of Th1 cells relative to control” value in test [1] (setting [5]) is on record as 16 % of control levels. The “inhibition of proliferation of Th2 cells (in words)” value in test [2] (setting [4]) was “selectively inhibits”. The “proliferation of Th2 cells relative to control” value in test [2] (setting [5]) was 16 % of control levels. Also, in test [3] (setting [4]), the “inhibition of proliferation of TGFβ-derived Treg cells (in words)” value is on record as “not”.
